System: Erysiphe graminis tritici (powdery mildew)
Experiment: Greenhouse Test 1, foliar spray fungicide screen (POWD MDEW), host wheat
Format: in vivo
Conditions: disease control rating, 400 ppm (+++ at 100 ppm)

| SMILES | POWD MDEW |
| --- | --- |
| Fc1cccc2c(NCCc3ccc(Oc4ccccc4)cc3)ncnc12 [Example 101, 8-fluoro-N-[2-(4-phenoxyphenyl)ethyl]-4-quinazolinamine] | + (+ = 20-89% control at 400 ppm) |
| Fc1cccc2c(NCCc3ccc(-c4ccccc4)cc3)ncnc12 [Example 102, 8-fluoro-N-[2-(1,1'-biphenyl)-4-ylethyl]-4-quinazolinamine] | ++ (++ = 90-100% control at 400 ppm) |
| Cc1ccccc1CCOc1ncnc2ccccc12 [Example 103, 4-[2-(2-methylphenyl)ethoxy]quinazoline] | + (+ = 20-89% control at 400 ppm) |
| c1ccc(Oc2ccc(CCNc3ncnc4ccccc34)cc2)cc1 [Example 104, N-[2-(4-phenoxyphenyl)ethyl]-4-quinazolinamine] | +++ (+++ = 90-100% control at 100 ppm) |
| OC(CNc1ncnc2ccccc12)c1ccc2ccccc2c1 (stereo not drawn) [Example 105, α-[(4-quinazolinylamino)methyl]-2-naphthalenemethanol] | - (- = 0-19% control at 400 ppm) |

System: Pyricularia oryzae (rice blast)
Experiment: not given
Format: in vivo
Conditions: disease control rating, foliar spray, host rice; 400 ppm (+++ at 100 ppm)

| SMILES | RICE BLAST |
| --- | --- |
| Fc1cccc2c(NCCc3ccc(Oc4ccccc4)cc3)ncnc12 [Example 101, 8-fluoro-N-[2-(4-phenoxyphenyl)ethyl]-4-quinazolinamine] | +++ (+++ = 90-100% control at 100 ppm) |
| Fc1cccc2c(NCCc3ccc(-c4ccccc4)cc3)ncnc12 [Example 102, 8-fluoro-N-[2-(1,1'-biphenyl)-4-ylethyl]-4-quinazolinamine] | +++ (+++ = 90-100% control at 100 ppm) |
| Cc1ccccc1CCOc1ncnc2ccccc12 [Example 103, 4-[2-(2-methylphenyl)ethoxy]quinazoline] | + (+ = 20-89% control at 400 ppm) |
| c1ccc(Oc2ccc(CCNc3ncnc4ccccc34)cc2)cc1 [Example 104, N-[2-(4-phenoxyphenyl)ethyl]-4-quinazolinamine] | +++ (+++ = 90-100% control at 100 ppm) |
| OC(CNc1ncnc2ccccc12)c1ccc2ccccc2c1 (stereo not drawn) [Example 105, α-[(4-quinazolinylamino)methyl]-2-naphthalenemethanol] | + (+ = 20-89% control at 400 ppm) |

System: Puccinia recondita tritici (leaf rust)
Experiment: Greenhouse Test 1, foliar spray fungicide screen (LEAF RUST), host wheat
Format: in vivo
Conditions: disease control rating, 400 ppm (+++ at 100 ppm)

| SMILES | LEAF RUST |
| --- | --- |
| Fc1cccc2c(NCCc3ccc(Oc4ccccc4)cc3)ncnc12 [Example 101, 8-fluoro-N-[2-(4-phenoxyphenyl)ethyl]-4-quinazolinamine] | - (- = 0-19% control at 400 ppm) |
| Fc1cccc2c(NCCc3ccc(-c4ccccc4)cc3)ncnc12 [Example 102, 8-fluoro-N-[2-(1,1'-biphenyl)-4-ylethyl]-4-quinazolinamine] | +++ (+++ = 90-100% control at 100 ppm) |
| Cc1ccccc1CCOc1ncnc2ccccc12 [Example 103, 4-[2-(2-methylphenyl)ethoxy]quinazoline] | +++ (+++ = 90-100% control at 100 ppm) |
| c1ccc(Oc2ccc(CCNc3ncnc4ccccc34)cc2)cc1 [Example 104, N-[2-(4-phenoxyphenyl)ethyl]-4-quinazolinamine] | +++ (+++ = 90-100% control at 100 ppm) |
| OC(CNc1ncnc2ccccc12)c1ccc2ccccc2c1 (stereo not drawn) [Example 105, α-[(4-quinazolinylamino)methyl]-2-naphthalenemethanol] | ++ (++ = 90-100% control at 400 ppm) |

System: Botrytis cinerea (gray mold)
Experiment: Greenhouse Test 1, foliar spray fungicide screen (GRAY MOLD), host grape berries
Format: in vivo
Conditions: disease control rating, 400 ppm (+++ at 100 ppm)

| SMILES | GRAY MOLD |
| --- | --- |
| Fc1cccc2c(NCCc3ccc(Oc4ccccc4)cc3)ncnc12 [Example 101, 8-fluoro-N-[2-(4-phenoxyphenyl)ethyl]-4-quinazolinamine] | ++ (++ = 90-100% control at 400 ppm) |
| Fc1cccc2c(NCCc3ccc(-c4ccccc4)cc3)ncnc12 [Example 102, 8-fluoro-N-[2-(1,1'-biphenyl)-4-ylethyl]-4-quinazolinamine] | ++ (++ = 90-100% control at 400 ppm) |
| Cc1ccccc1CCOc1ncnc2ccccc12 [Example 103, 4-[2-(2-methylphenyl)ethoxy]quinazoline] | - (- = 0-19% control at 400 ppm) |
| c1ccc(Oc2ccc(CCNc3ncnc4ccccc34)cc2)cc1 [Example 104, N-[2-(4-phenoxyphenyl)ethyl]-4-quinazolinamine] | - (- = 0-19% control at 400 ppm) |
| OC(CNc1ncnc2ccccc12)c1ccc2ccccc2c1 (stereo not drawn) [Example 105, α-[(4-quinazolinylamino)methyl]-2-naphthalenemethanol] | - (- = 0-19% control at 400 ppm) |

System: Pseudoperonospora cubensis (downy mildew)
Experiment: Greenhouse Test 1, foliar spray fungicide screen (DOWN MDEW), host squash
Format: in vivo
Conditions: disease control rating, 400 ppm (+++ at 100 ppm)

| SMILES | DOWN MDEW |
| --- | --- |
| Fc1cccc2c(NCCc3ccc(Oc4ccccc4)cc3)ncnc12 [Example 101, 8-fluoro-N-[2-(4-phenoxyphenyl)ethyl]-4-quinazolinamine] | +++ (+++ = 90-100% control at 100 ppm) |
| Fc1cccc2c(NCCc3ccc(-c4ccccc4)cc3)ncnc12 [Example 102, 8-fluoro-N-[2-(1,1'-biphenyl)-4-ylethyl]-4-quinazolinamine] | ++ (++ = 90-100% control at 400 ppm) |
| Cc1ccccc1CCOc1ncnc2ccccc12 [Example 103, 4-[2-(2-methylphenyl)ethoxy]quinazoline] | + (+ = 20-89% control at 400 ppm) |
| c1ccc(Oc2ccc(CCNc3ncnc4ccccc34)cc2)cc1 [Example 104, N-[2-(4-phenoxyphenyl)ethyl]-4-quinazolinamine] | +++ (+++ = 90-100% control at 100 ppm) |
| OC(CNc1ncnc2ccccc12)c1ccc2ccccc2c1 (stereo not drawn) [Example 105, α-[(4-quinazolinylamino)methyl]-2-naphthalenemethanol] | - (- = 0-19% control at 400 ppm) |

System: Southern corn rootworm (Diabrotica undecimpuctata howardi Barber)
Experiment: Mite/insect screen, soil treatment (CRW)
Format: in vivo
Conditions: Diabrotica; percent mortality; soil treatment, CRW rate 12.00 ppm; read-out: CRW RESULTS %
Summary of the method: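 Five 2–3 instar larvae were placed on dry sandy soil with a presoaked corn seed after the soil had received 1 mL of compound solution and dried 6–12 h; cups were kept capped at 23°C. Mortality (%) and phytotoxicity were read after standard exposure. Formulation: acetone/alcohol with emulsifiers, water-diluted.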

| SMILES | mortality at 12 ppm [%] |
| --- | --- |
| Fc1cccc2c(NCCc3ccc(Oc4ccccc4)cc3)ncnc12 [Example 101, 8-fluoro-N-[2-(4-phenoxyphenyl)ethyl]-4-quinazolinamine] | 100 |
| Fc1cccc2c(NCCc3ccc(-c4ccccc4)cc3)ncnc12 [Example 102, 8-fluoro-N-[2-(1,1'-biphenyl)-4-ylethyl]-4-quinazolinamine] | 0 |

Same assay, conditions: Diabrotica; percent mortality; soil treatment, CRW rate 24.00 ppm; read-out: CRW RESULTS %

| SMILES | mortality at 24 ppm [%] |
| --- | --- |
| Fc1cccc2c(NCCc3ccc(Oc4ccccc4)cc3)ncnc12 [Example 101, 8-fluoro-N-[2-(4-phenoxyphenyl)ethyl]-4-quinazolinamine] | 0 |
| Fc1cccc2c(NCCc3ccc(-c4ccccc4)cc3)ncnc12 [Example 102, 8-fluoro-N-[2-(1,1'-biphenyl)-4-ylethyl]-4-quinazolinamine] | 0 |
| Cc1ccccc1CCOc1ncnc2ccccc12 [Example 103, 4-[2-(2-methylphenyl)ethoxy]quinazoline] | 0 |
| c1ccc(Oc2ccc(CCNc3ncnc4ccccc34)cc2)cc1 [Example 104, N-[2-(4-phenoxyphenyl)ethyl]-4-quinazolinamine] | 100 |
| OC(CNc1ncnc2ccccc12)c1ccc2ccccc2c1 (stereo not drawn) [Example 105, α-[(4-quinazolinylamino)methyl]-2-naphthalenemethanol] | 0 |

Same assay, conditions: percent mortality; rate not given

| SMILES | CRW RESULTS % [%] |
| --- | --- |
| c1ccc(Oc2ccc(CCNc3ncnc4ccccc34)cc2)cc1 [Example 104, N-[2-(4-phenoxyphenyl)ethyl]-4-quinazolinamine] | 0 |

System: southern armyworm (Spodopetra eridania Cramer)
Experiment: Mite/insect screen, sprayed squash leaves (SAW)
Format: in vivo
Conditions: Spodoptera eridania, percent mortality; spray rate 200 ppm; read-out: SAW RESULTS %
Summary of the method: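 Acetone/alcohol (50:50) + emulsifier blends 23 g/L and 13 g/L; water dilution to test concs. Spray both leaf surfaces to runoff, dry 1 h. For armyworm, 2 excised uninfested leaves into Petri dish with larvae. Readout: % mortality, phytotoxicity.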

| SMILES | mortality at 200 ppm [%] |
| --- | --- |
| Fc1cccc2c(NCCc3ccc(Oc4ccccc4)cc3)ncnc12 [Example 101, 8-fluoro-N-[2-(4-phenoxyphenyl)ethyl]-4-quinazolinamine] | 100 |
| Fc1cccc2c(NCCc3ccc(-c4ccccc4)cc3)ncnc12 [Example 102, 8-fluoro-N-[2-(1,1'-biphenyl)-4-ylethyl]-4-quinazolinamine] | 80 |

Same assay, conditions: Spodoptera eridania, percent mortality; spray rate 400 ppm; read-out: SAW RESULTS %

| SMILES | mortality at 400 ppm [%] |
| --- | --- |
| Fc1cccc2c(NCCc3ccc(Oc4ccccc4)cc3)ncnc12 [Example 101, 8-fluoro-N-[2-(4-phenoxyphenyl)ethyl]-4-quinazolinamine] | 0 |
| Fc1cccc2c(NCCc3ccc(-c4ccccc4)cc3)ncnc12 [Example 102, 8-fluoro-N-[2-(1,1'-biphenyl)-4-ylethyl]-4-quinazolinamine] | 100 |
| Cc1ccccc1CCOc1ncnc2ccccc12 [Example 103, 4-[2-(2-methylphenyl)ethoxy]quinazoline] | 0 |
| c1ccc(Oc2ccc(CCNc3ncnc4ccccc34)cc2)cc1 [Example 104, N-[2-(4-phenoxyphenyl)ethyl]-4-quinazolinamine] | 100 |
| OC(CNc1ncnc2ccccc12)c1ccc2ccccc2c1 (stereo not drawn) [Example 105, α-[(4-quinazolinylamino)methyl]-2-naphthalenemethanol] | 0 |

Same assay, conditions: percent mortality; rate not given

| SMILES | SAW RESULTS % [%] |
| --- | --- |
| c1ccc(Oc2ccc(CCNc3ncnc4ccccc34)cc2)cc1 [Example 104, N-[2-(4-phenoxyphenyl)ethyl]-4-quinazolinamine] | 0 |

System: Twospotted spider mites (Tetranychus urticae Koch)
Experiment: Mite/insect screen, sprayed squash cotyledons (SM)
Format: in vivo
Conditions: Tetranychus urticae, percent mortality; spray rate 200 ppm; read-out: SM RESULTS %
Summary of the method: (§1)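 Steps: formulate compound in acetone/alcohol 50:50 carrying emulsifiers; dilute with water; spray leaves until runoff on upper and lower surfaces; air-dry one hour; for armyworm, excise two […] leaves into a dish of larvae; after exposure, score mortality and plant injury.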

| SMILES | mortality at 200 ppm [%] |
| --- | --- |
| Fc1cccc2c(NCCc3ccc(Oc4ccccc4)cc3)ncnc12 [Example 101, 8-fluoro-N-[2-(4-phenoxyphenyl)ethyl]-4-quinazolinamine] | 100 |
| Fc1cccc2c(NCCc3ccc(-c4ccccc4)cc3)ncnc12 [Example 102, 8-fluoro-N-[2-(1,1'-biphenyl)-4-ylethyl]-4-quinazolinamine] | 80 |

Same assay, conditions: Tetranychus urticae, percent mortality; spray rate 400 ppm; read-out: SM RESULTS %

| SMILES | mortality at 400 ppm [%] |
| --- | --- |
| Fc1cccc2c(NCCc3ccc(Oc4ccccc4)cc3)ncnc12 [Example 101, 8-fluoro-N-[2-(4-phenoxyphenyl)ethyl]-4-quinazolinamine] | 100 |
| Fc1cccc2c(NCCc3ccc(-c4ccccc4)cc3)ncnc12 [Example 102, 8-fluoro-N-[2-(1,1'-biphenyl)-4-ylethyl]-4-quinazolinamine] | 90 |
| Cc1ccccc1CCOc1ncnc2ccccc12 [Example 103, 4-[2-(2-methylphenyl)ethoxy]quinazoline] | 0 |
| c1ccc(Oc2ccc(CCNc3ncnc4ccccc34)cc2)cc1 [Example 104, N-[2-(4-phenoxyphenyl)ethyl]-4-quinazolinamine] | 0 |
| OC(CNc1ncnc2ccccc12)c1ccc2ccccc2c1 (stereo not drawn) [Example 105, α-[(4-quinazolinylamino)methyl]-2-naphthalenemethanol] | 0 |

Same assay, conditions: percent mortality; rate not given

| SMILES | SM RESULTS % [%] |
| --- | --- |
| c1ccc(Oc2ccc(CCNc3ncnc4ccccc34)cc2)cc1 [Example 104, N-[2-(4-phenoxyphenyl)ethyl]-4-quinazolinamine] | 100 |

System: melon aphids (Aphis gossypii Glover)
Experiment: Mite/insect screen, sprayed squash cotyledons (MA)
Format: in vivo
Conditions: Aphis gossypii, percent mortality; spray rate 200 ppm; read-out: MA RESULTS %
Summary of the method: as §1

| SMILES | mortality at 200 ppm [%] |
| --- | --- |
| Fc1cccc2c(NCCc3ccc(Oc4ccccc4)cc3)ncnc12 [Example 101, 8-fluoro-N-[2-(4-phenoxyphenyl)ethyl]-4-quinazolinamine] | 80 |
| Fc1cccc2c(NCCc3ccc(-c4ccccc4)cc3)ncnc12 [Example 102, 8-fluoro-N-[2-(1,1'-biphenyl)-4-ylethyl]-4-quinazolinamine] | 80 |

Same assay, conditions: Aphis gossypii, percent mortality; spray rate 400 ppm; read-out: MA RESULTS %

| SMILES | mortality at 400 ppm [%] |
| --- | --- |
| Fc1cccc2c(NCCc3ccc(Oc4ccccc4)cc3)ncnc12 [Example 101, 8-fluoro-N-[2-(4-phenoxyphenyl)ethyl]-4-quinazolinamine] | 100 |
| Fc1cccc2c(NCCc3ccc(-c4ccccc4)cc3)ncnc12 [Example 102, 8-fluoro-N-[2-(1,1'-biphenyl)-4-ylethyl]-4-quinazolinamine] | 90 |
| Cc1ccccc1CCOc1ncnc2ccccc12 [Example 103, 4-[2-(2-methylphenyl)ethoxy]quinazoline] | 0 |
| c1ccc(Oc2ccc(CCNc3ncnc4ccccc34)cc2)cc1 [Example 104, N-[2-(4-phenoxyphenyl)ethyl]-4-quinazolinamine] | 0 |
| OC(CNc1ncnc2ccccc12)c1ccc2ccccc2c1 (stereo not drawn) [Example 105, α-[(4-quinazolinylamino)methyl]-2-naphthalenemethanol] | 0 |

Same assay, conditions: percent mortality; rate not given

| SMILES | MA RESULTS % [%] |
| --- | --- |
| c1ccc(Oc2ccc(CCNc3ncnc4ccccc34)cc2)cc1 [Example 104, N-[2-(4-phenoxyphenyl)ethyl]-4-quinazolinamine] | 100 |

From patent publication EP0326329B1, “Quinazoline derivatives useful as insecticides” (Dow AgroSciences LLC, priority 1988, dated 1989)
